“And” between values parts separate entries of the source, which are not always exact repeats. Equal entries are not always repeated.
Target: T1, Nav1.5/β1 (Homo sapiens, UniProt Q14524)
T1 construct: Nav1.5 (UniProt: Q14524.1); expressed in transfected cells; host or cells: Xenopus laevis oocytes (cRNA injection, Nav1.5:β1 2:1 by weight)
Assay: Two-electrode voltage clamp of Nav1.5/β1 expressed in Xenopus oocytes
Type: cell-based
Settings: for INa I/I0: relative current at 0 mV
Method: Molecular Biology cRNA encoding Kv7.1 (UniProt: P51787), KCNE1 (UniProt: P15382.1), Nav1.5 (UniProt: Q14524.1), Nav β1 (UniProt: […]), Nav β3 (UniProt: […]), Cav1.2 (GenBank: CAA84346), Cav β3 (Uniprot: P54286), Cav β2 (Uniprot: P54288), and Cav α2δ (Uniprot: P13806) were transcribed using the mMessage mMachine T7 kit (Ambion). 50 ng of cRNA was injected into defolliculated Xenopus laevis oocytes (Ecocyte, Austin, TX): For Kv7.1/KCNE1 channel expression, we injected a 3:1, weight:weight (Kv7.1:KCNE1) cRNA ratio. For Nav1.5 channel expression, we injected a 2:1, weight:weight (Nav1.5:β1) cRNA ratio. For Cav1.2 channel expression, we injected a 2:1:1, weight:weight (Cav1.2:β3:α2δ) cRNA ratio. The exact stoichiometry for channel macromolecular complexes, including α -subunits and auxiliary subunits is not clear for many ion channels. For example, there have been multiple reported stoichiometries for Kv7.1:KCNE1 determined in heterologous expression systems with some groups reporting flexible stoichiometry of 4 Kv7.1: 1–4 KCNE1 and others reporting a fixed stoichiometry of 4 Kv7.1: 2 KCNE1 ([Murray et al., 2016]; [Nakajo et al., 2010]). The ratios of cRNA of α- and auxiliary subunits that we injected in Xenopus laevis oocytes are such that all α-subunits are assumed to be in complex with auxiliary subunits. This allows a more homogenous population of ion channels with auxiliary subunits. One caveat to expressing ion channels as macromolecular complexes is that there are many other auxiliary subunits that could associate with the channel α -subunit that are present in cardiomyocytes and have the potential to alter PUFA-induced effects, but that are not being co-expressed in our experiments. In this work, we are co-expressing some of the auxiliary subunits that have been primarily reported to associate with their respective α -subunits in cardiomyocytes. Following cRNA injection, cells were incubated for 72–96 hr in standard ND96 solution (96 mM NaCl, 2 mM KCl, 1 mM MgCl2, 1.8 mM CaCl2, 5 mM HEPES; pH = 7.5) containing 1 mM pyruvate at 16°C prior to electrophysiological recordings.
Xenopus laevis oocytes were recorded in the two-electrode voltage clamp (TEVC) configuration. Recording pipettes were filled with 3 M KCl. The recording chamber was filled with ND96 (96 mM NaCl, 2 mM KCl, 1 mM MgCl2, 1.8 mM CaCl2, 5 mM HEPES; pH 7.5). For Cav1.2/β3/α2δ channel recordings, Xenopus oocytes were injected with 50 nl of 100 mM EGTA and incubated at 10°C for 30 min prior to electrophysiological recordings in order to sequester cytosolic calcium. In addition, Cav1.2/β3/α2δ channel recordings were done in Ca^2+-free solutions, using Ba^2+ as the charge carrier, to prevent calcium-dependent inactivation of Cav1.2/β3/α2δ channels. Calcium-dependent inactivation was not studied in this work, due to the presence of large calcium-activated chloride currents present in Xenopus laevis oocytes. PUFAs were obtained from Cayman Chemical (Ann Arbor, MI.) or synthesized in house (Linköping, Sweden) through methods previously described ([Bohannon et al., 2020]) and kept at −20 °C as 100 mM stock solutions in ethanol. Serial dilutions of the different PUFAs were prepared from stocks to make 0.2 μM, 0.7 μM, 2 μM, 7 μM, and 20 μM concentrations in ND96 solutions (pH = 7.5). PUFAs were perfused into the recording chamber using the Rainin Dynamax Peristaltic Pump (Model RP-1) (Rainin Instrument Co., Oakland, CA. USA).
Electrophysiological recordings were obtained using Clampex 10.3 software (Axon, pClamp, Molecular Devices). To measure Kv7.1/KCNE1 currents we apply PUFAs as the membrane potential is stepped every 30 s from −80 mV to 0 mV for 5 s before stepping to −40 mV and back to −80 mV to ensure that the PUFA effects on the current at 0 mV reached steady state. A voltage-step protocol was used to measure the current vs. voltage (I-V) relationship before PUFA application and after the PUFA effects had reached steady state for each concentration of PUFA. […]

T1 sequence (Q14524 whole entry): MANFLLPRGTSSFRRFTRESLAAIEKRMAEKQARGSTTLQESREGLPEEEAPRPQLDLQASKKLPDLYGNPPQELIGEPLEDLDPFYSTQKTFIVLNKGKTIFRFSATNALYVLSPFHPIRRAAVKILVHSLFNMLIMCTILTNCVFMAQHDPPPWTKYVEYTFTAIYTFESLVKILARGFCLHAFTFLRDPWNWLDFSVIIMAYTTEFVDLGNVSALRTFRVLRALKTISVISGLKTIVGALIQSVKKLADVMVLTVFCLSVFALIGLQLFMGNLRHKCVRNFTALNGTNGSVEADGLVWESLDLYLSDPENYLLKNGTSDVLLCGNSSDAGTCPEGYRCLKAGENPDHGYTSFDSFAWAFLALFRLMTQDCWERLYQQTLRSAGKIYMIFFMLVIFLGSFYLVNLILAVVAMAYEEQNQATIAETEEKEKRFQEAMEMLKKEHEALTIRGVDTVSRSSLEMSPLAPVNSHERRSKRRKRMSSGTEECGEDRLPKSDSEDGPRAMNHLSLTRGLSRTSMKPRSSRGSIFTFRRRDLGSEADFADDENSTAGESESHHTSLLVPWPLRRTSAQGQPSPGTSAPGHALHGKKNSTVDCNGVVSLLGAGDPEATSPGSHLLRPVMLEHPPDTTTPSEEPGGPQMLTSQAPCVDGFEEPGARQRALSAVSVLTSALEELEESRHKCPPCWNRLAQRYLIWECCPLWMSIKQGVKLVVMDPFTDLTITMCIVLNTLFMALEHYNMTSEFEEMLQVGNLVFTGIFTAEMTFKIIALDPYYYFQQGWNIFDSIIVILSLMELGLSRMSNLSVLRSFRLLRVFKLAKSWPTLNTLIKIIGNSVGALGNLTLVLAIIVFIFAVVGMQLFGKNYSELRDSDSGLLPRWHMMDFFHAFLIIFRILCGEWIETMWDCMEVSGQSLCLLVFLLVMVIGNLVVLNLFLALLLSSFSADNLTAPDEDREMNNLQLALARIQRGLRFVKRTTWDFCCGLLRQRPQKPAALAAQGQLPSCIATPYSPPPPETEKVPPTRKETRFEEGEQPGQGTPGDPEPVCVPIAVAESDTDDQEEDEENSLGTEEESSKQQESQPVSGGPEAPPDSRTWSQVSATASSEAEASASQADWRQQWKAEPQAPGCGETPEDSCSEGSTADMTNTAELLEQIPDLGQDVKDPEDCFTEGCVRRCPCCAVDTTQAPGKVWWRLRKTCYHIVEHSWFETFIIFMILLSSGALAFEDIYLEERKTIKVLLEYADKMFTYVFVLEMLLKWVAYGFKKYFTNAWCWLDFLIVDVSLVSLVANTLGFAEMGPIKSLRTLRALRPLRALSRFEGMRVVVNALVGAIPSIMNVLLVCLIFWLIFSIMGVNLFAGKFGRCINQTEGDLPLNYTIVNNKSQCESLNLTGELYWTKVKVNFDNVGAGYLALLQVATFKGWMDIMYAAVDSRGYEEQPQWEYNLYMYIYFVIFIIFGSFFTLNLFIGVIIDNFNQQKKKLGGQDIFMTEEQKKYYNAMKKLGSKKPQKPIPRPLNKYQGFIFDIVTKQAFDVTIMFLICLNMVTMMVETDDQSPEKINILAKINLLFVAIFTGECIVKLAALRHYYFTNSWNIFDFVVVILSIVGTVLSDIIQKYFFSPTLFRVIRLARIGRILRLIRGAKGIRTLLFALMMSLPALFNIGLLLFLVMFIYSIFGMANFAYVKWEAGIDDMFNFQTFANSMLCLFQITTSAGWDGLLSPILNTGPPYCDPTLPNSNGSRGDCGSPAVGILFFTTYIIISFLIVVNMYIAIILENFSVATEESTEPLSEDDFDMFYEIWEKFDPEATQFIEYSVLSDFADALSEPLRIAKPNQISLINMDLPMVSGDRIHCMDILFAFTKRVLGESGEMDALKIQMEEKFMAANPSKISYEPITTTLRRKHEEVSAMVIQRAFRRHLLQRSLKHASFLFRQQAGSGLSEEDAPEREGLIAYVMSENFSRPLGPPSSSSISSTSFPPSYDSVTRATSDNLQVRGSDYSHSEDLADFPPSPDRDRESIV
T1 sequence (Q07699 19-218 partner): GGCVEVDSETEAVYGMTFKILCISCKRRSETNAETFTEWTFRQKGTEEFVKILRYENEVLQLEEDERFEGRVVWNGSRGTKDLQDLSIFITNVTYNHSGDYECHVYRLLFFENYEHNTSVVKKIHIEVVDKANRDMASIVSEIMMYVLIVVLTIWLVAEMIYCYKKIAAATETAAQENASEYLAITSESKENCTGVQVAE

Row | SMILES | Gmax/Gmax0 (0.2 μM) | ΔV0.5 (voltage dependence of inactivation) (0.2 μM) [mV] | INa I/I0 (0.2 μM) | Gmax/Gmax0 (0.7 μM) | ΔV0.5 (voltage dependence of inactivation) (0.7 μM) [mV] | INa I/I0 (0.7 μM) | Gmax/Gmax0 (2 μM) | ΔV0.5 (voltage dependence of inactivation) (2 μM) [mV] | INa I/I0 (2 μM) | Gmax/Gmax0 (7 μM) | ΔV0.5 (voltage dependence of inactivation) (7 μM) | Gmax/Gmax0 (20 μM) | ΔV0.5 (voltage dependence of inactivation) (20 μM) [mV] | INa I/I0 (20 μM) | INa I/I0 (7 μM) | also measured
1 | CC/C=C\C/C=C\C/C=C\C/C=C\C/C=C\C/C=C\CCC(=O)NCC(=O)O [DHA-glycine, docosahexaenoyl glycine] | 1.0 ± 0.02 | 0.3 ± 0.1 | 1.0 ± 0.02 | 1.0 ± 0.03 | -0.2 ± 0.6 | 1.0 ± 0.04 | 1.0 ± 0.04 | -0.3 ± 0.5 | 1.1 ± 0.05 | 1.0 ± 0.04 | −2.4 ± 0.6 mV and -2.4 ± 0.7 mV | 0.5 ± 0.1 | -11.5 ± 1.7 | 0.7 ± 0.1 | – | –
2 | CCCCC/C=C\C/C=C\CCCCCCCC(=O)NCC(=O)O [Lin-glycine] | 1.0 ± 0.03 | -0.2 ± 0.06 | 1.0 ± 0.03 | 1.0 ± 0.05 | -1.2 ± 0.3 | 1.0 ± 0.04 | 0.9 ± 0.06 | -4.3 ± 0.8 | 0.9 ± 0.1 | 0.5 ± 0.1 | −15.2 ± 2.8 mV | 0.2 ± 0.02 | -21.7 ± 1.2 | 0.3 ± 0.02 | 0.5 ± 0.1 (p=0.02) | ΔV0.5 (voltage dependence of inactivation) (7 μM, listed as lin-glycine): -15.2 ± 2.8 mV; INa I/I0 (7 μM, listed as lin-glycine): 0.5 ± 0.1
3 | CCCCC/C=C\C/C=C\CC/C=C\CCCC(=O)NCCS(=O)(=O)O [Pin-taurine] | 1.2 ± 0.2 | 1.6 ± 0.9 | 1.2 ± 0.1 | 1.2 ± 0.2 | 0.9 ± 1.1 | 1.2 ± 0.1 | 1.0 ± 0.1 | -3.0 ± 1.9 | 1.0 ± 0.1 | 0.4 ± 0.09 | –16 ± 2.7 mV | 0.1 ± 0.02 | -28.1 ± 2.4 | 0.2 ± 0.03 | 0.5 ± 0.1 (p=0.01) | Gmax/Gmax0 (7 μM, listed as pin-taurine): 0.4 ± 0.1; ΔV0.5 (voltage dependence of inactivation) (7 μM, listed as pin-taurine): -16.0 ± 2.7 mV; INa I/I0 (7 μM, listed as pin-taurine): 0.5 ± 0.1
4 | CCCCC/C=C\C/C=C\CC/C=C\CCCC(=O)NCC(=O)O [Pin-glycine] | 1.0 ± 0.03 | 0.4 ± 0.3 | 1.1 ± 0.05 | 1.0 ± 0.03 | 0.4 ± 0.6 | 1.1 ± 0.1 | 0.9 ± 0.04 | -0.3 ± 0.7 | 1.0 ± 0.1 | 0.7 ± 0.08 | –4.7 ± 1.9 mV | 0.3 ± 0.1 | -17.8 ± 4.2 | 0.3 ± 0.1 | 0.7 ± 0.1 (p=0.09) | Gmax/Gmax0 (7 μM, listed as pin-glycine): 0.7 ± 0.1; ΔV0.5 (voltage dependence of inactivation) (7 μM, listed as pin-glycine): -4.8 ± 1.9 mV; INa I/I0 (7 μM, listed as pin-glycine): 0.7 ± 0.1
5 | CCCCC/C=C\C/C=C\CCCCCCCC(=O)NCCS(=O)(=O)O [Lin-taurine, Linoleoyl taurine] | 1.0 ± 0.01 | -0.3 ± 0.1 | 1.0 ± 0.01 | 1.0 ± 0.01 | -2.2 ± 0.7 | 1.0 ± 0.05 | 0.9 ± 0.05 | -8.8 ± 1.7 | 0.6 ± 0.07 | 0.5 ± 0.07 | −23.5 ± 1.9 mV | 0.3 ± 0.04 | -34.9 ± 1.5 | 0.1 ± 0.01 | 0.1 ± 0.02 (p=0.0001) | ΔV0.5 (voltage dependence of inactivation) (7 μM, listed as lin-taurine): -23.5 ± 1.9 mV; INa I/I0 (7 μM, listed as lin-taurine): 0.1 ± 0.02; shift of the voltage dependence of activation (0.2-20 μM): no shift in the voltage dependence of activation
6 | CCCCC/C=C\C/C=C\C/C=C\C/C=C\CCCC(=O)NCCS(=O)(=O)O [N-AT, N-arachidonoyl taurine] | 1.0 ± 0.04 | -0.2 ± 0.5 | 1.0 ± 0.09 | 1.0 ± 0.06 | 0.2 ± 1.4 | 1.0 ± 0.07 | 0.7 ± 0.03 | -5.2 ± 0.4 | 0.7 ± 0.08 | 0.3 ± 0.04 | –16.7 ± 3.5 mV | 0.07 ± 0.01 | -27.5 ± 2.9 | 0.1 ± 0.02 | – | –

Source: article PMC7159882, “Polyunsaturated fatty acid analogues differentially affect cardiac NaV, CaV, and KV channels through unique mechanisms” (eLife, 2020)
